Biological target: T1, murine TLR4, MD2, and CD14 (Mus musculus, UniProt Q9JHF9+Q9QUK6)
T1 construct: host or cells: HEK 293T
T1 sequence (Q9QUK6 26-835): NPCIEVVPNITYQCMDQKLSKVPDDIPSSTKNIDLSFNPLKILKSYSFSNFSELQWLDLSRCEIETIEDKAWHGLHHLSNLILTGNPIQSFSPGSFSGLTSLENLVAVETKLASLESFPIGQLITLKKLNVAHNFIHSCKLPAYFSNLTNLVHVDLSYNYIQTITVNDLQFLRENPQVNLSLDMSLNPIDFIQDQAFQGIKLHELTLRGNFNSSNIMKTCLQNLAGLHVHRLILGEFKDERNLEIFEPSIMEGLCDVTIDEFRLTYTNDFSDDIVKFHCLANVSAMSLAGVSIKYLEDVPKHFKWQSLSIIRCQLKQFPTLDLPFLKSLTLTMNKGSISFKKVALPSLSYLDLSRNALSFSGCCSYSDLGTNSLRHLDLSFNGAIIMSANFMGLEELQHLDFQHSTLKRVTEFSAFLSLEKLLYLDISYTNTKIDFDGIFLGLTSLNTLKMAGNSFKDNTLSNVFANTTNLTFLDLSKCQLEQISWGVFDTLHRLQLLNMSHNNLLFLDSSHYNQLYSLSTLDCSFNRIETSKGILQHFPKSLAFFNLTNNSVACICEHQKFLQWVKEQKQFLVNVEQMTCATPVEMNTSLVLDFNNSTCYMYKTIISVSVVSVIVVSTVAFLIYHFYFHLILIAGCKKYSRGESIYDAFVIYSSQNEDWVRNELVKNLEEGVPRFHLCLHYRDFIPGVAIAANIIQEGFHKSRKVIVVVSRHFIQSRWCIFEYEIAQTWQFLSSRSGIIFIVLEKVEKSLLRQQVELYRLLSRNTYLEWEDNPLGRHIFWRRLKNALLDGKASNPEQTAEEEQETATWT
T1 sequence (Q9JHF9 19-160): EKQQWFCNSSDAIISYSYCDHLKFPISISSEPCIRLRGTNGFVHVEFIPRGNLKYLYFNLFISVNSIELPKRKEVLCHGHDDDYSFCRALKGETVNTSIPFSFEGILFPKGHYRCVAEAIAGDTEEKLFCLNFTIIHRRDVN
Experiment: NF-κB activation (luciferase reporter) in HEK 293T cells stably transfected with murine TLR4/MD2/CD14
Format: cell-based
Settings: for EC50: 4 h exposure, dual-luciferase, best-fit value
Method: Induction of NF-κB activation was determined in triplicate cultures of HEK 293T cells stably transfected with murine TLR4, MD2, and CD14 and transiently transfected with pELAM-Luc, pRL-TK, and pcDNA3 plasmids. Forty-four hours post-transfection, cells were treated with E. coli LPS or lipid A derivatives 1-5 at the indicated concentrations or were left untreated (control). Forty-eight hours post-transfection, NF-κB activation was determined by firefly luciferase activity relative to Renilla luciferase activity. In the transfection experiment shown, human TNF-α (10 ng/mL) induced 12.1±0.3-fold activation of NF-κB.
To obtain further support that the EC50 values of secreted TNF-α protein are not affected by transcriptional, translational, or protein processing processes, dose response curves for the activation of the transcription factor NF-κB were determined for each compound and the results compared with similar data for secretion of TNF-α protein. Thus, compounds 1-5, and E. coli LPS were exposed at a range of concentrations to HEK 293T cells stably transfected with […] TLR4/MD2/CD14 and transiently transfected with a plasmid containing the reporter gene pELAM-Luc (NF-κB dependent firefly luciferase reporter vector) and a plasmid containing the control gene pRL-TK (Renilla luciferase control reporter vector). As a negative control, wild type HEK 293T cells transiently transfected with plasmids containing the reporter gene pELAM-Luc and control gene pRL-TK were used. After an incubation time of 4 h, the activity was measured using a commercial dual-luciferase assay.
The day before transfection, HEK 293T wild type cells and HEK 293T cells stably transfected with murine TLR4/MD2/CD14 were plated in 96-well tissue culture plates (16,000 cells/well). The next day, cells were transiently transfected using PolyFect Transfection Reagent (Qiagen) with expression plasmids pELAM-Luc (NF-κB-dependent firefly luciferase reporter plasmid, 50 ng/well) (Chow et al., J. Biol. Chem. 1999, 274, 10689-10692) and pRL-TK (Renilla luciferase control reporter vector, 1 ng/well; Promega) as an internal control to normalize experimental variations. The empty vector pcDNA3 (Invitrogen) was used as a control and to normalize the DNA concentration for all of the transfection reactions (total DNA 70 ng/well). […] The luciferase activity was measured using the Dual-Luciferase Reporter Assay System (Promega) according to the manufacturer's instructions and the Fluoroskan Accent FL combination luminometer/fluorometer (Thermo Electron Corporation). […]
Concentration-response data were analyzed using nonlinear least-squares curve fitting in Prism (GraphPad Software, Inc.). […]

| SMILES | NF-κB activation, mouse TLR4/MD2/CD14 (Example III, 104 at 0.1, 1 and 10 μg mL−1, E. coli LPS 10 ng mL−1, 4 h) | EC50 [nM] |
| --- | --- | --- |
| CCCCCCCCCCCCCCCC(=O)O[C@H](CCCCCCCCCCCC(C)C)CC(=O)N[C@H]1[C@H](OC[C@H]2O[C@H](OP(=O)(O)O)[C@H](NC(=O)C[C@H](O)CCCCCCCCCCCC(C)C)[C@@H](O)[C@@H]2O)O[C@H](CO)[C@@H](O)[C@@H]1ONC(=O)C[C@H](O)CCCCCCCCCC(C)C [Compound 104, 6-O-{2-Deoxy-2-[(R)-3-hexadecanoyloxy-15-methyl-hexadecanoylamino]-3-O—[(R)-3-hydroxy-13-methyl-tetradecanoylamino]-β-D-glucopyranosyl}-2-deoxy-2-[(R)-3-hydroxy-15-methyl-hexadecanoylamino]-α-D-glucopyranose 1-phosphate] | at high concentrations, compound 104 could induce NF-κB activation | – |
| CCCCCCCCCCCCCC(=O)OC(CCCCCCCCCCC)CC(=O)OC1C(NC(=O)CC(CCCCCCCCCCC)OC(=O)CCCCCCCCCCC)C(OCC2OC(OP(=O)(O)O)C(NC(=O)CC(O)CCCCCCCCCCC)C(OC(=O)CC(O)CCCCCCCCCCC)C2O)OC(CO)C1OP(=O)(O)O [Lipid A 1, 6-O-{2-Deoxy-2-[(R)-3-dodecanoyloxy-tetradecanoylamino]-3-O—[(R)-3-tetradecanoyloxy-tetradecanoyl]-β-D-glucopyranosyl}-2-deoxy-3-O—[(R)-3-hydroxy-tetradecanoyl]-2-[(R)-3-hydroxy-tetradecanoylamino]-α-D-glucopyranose 1,4′-bisphosphate] | – | 38 |
| CCCCCCCCCCCC(=O)OC(CCCCCCCCCCC)CC(=O)NC1C(OCC2OC(OP(=O)(O)O)C(NC(=O)CC(O)CCCCCCCCCCC)C(OC(=O)CC(O)CCCCCCCCC)C2O)OC(CO)C(OP(=O)(O)O)C1OC(=O)CC(CCCCCCCCC)OC(=O)CCCCCCCCCCC [Lipid A 2, 6-O-{2-Deoxy-3-O—[(R)-3-dodecanoyloxy-dodecanoyl]-2-[(R)-3-dodecanoyloxy-tetradecanoylamino]-β-D-glucopyranosyl}-2-deoxy-3-O—[(R)-3-hydroxy-dodecanoyl]-2-[(R)-3-hydroxy-tetredecanoylamino]-α-D-glucopyranose 1,4′-bisphosphate] | – | 14 |
| CCCCCCCCCCCCCCCC(=O)OC(CCCCCCCCCCC)CC(=O)NC1C(OP(=O)(O)O)OC(COC2OC(CO)C(OP(=O)(O)O)C(OC(=O)CC(CCCCCCCCC)OC(=O)CCCCCCCCCCC)C2NC(=O)CC(CCCCCCCCCCC)OC(=O)CCCCCCCCCCC)C(O)C1OC(=O)CC(O)CCCCCCCCC [Lipid A 4, 6-O-{2-Deoxy-3-O—[(R)-3-dodecanoyloxy-dodecanoyl]-2-[(R)-3-dodecanoyloxy-tetradecanoylamino]-β-D-glucopyranosyl}-2-deoxy-2-[(R)-3-hexadecanoyloxy-tetredecanoylamino]-3-O—[(R)-3-hydroxy-dodecanoyl]-α-D-glucopyranose 1,4′-bisphosphate] | – | 53 |

Source: patent US9309276B2, “Synthetic lipid A derivative” (University of Georgia Research Foundation, Inc., priority 2007, dated 2016)
